Assays:
KG1 cells = assay: MTT cytotoxicity assay, KG1; format: cell-based, human; settings: Mean ± SD
Description: (§1) Cytotoxicity was measured by the MTT assay.

p-ERK1/2 = assay: Western blot p-ERK1/2 in U-937 cells; format: cell-based, human; settings: 2.0 µmol/L, 0, 24 and 48 h
From the text: (§2) Unusual activation of Ras/Raf/MAPK signaling pathway is one of main characteristic of human cancer. In this study, the Ras/Raf/MAPK pathway was investigated in HMC-induced U-937 cell apoptosis. Genistein, a broad-spectrum inhibitor of protein tyrosine kinases (PTKs), was used to detect the cell viability after HMC treatment. […] Moreover, the expressions of Ras/Raf/ERK in U-937 cells were detected after HMC treatment in different time courses.
(§3) Figure 3 Apoptosis via Ras/Raf/ERK signaling pathway in U-937 cells after HMC treatment. (A) Cell viability was assessed using MTT method in U-937 cells after pretreated by 10 µmol/L Genistein for 1 h, and then the cells were incubated without or with 2.0 µmol/L HMC for 48 h. […] Data are presented as means ± SEM of three independent tests. * p < 0.05 versus control, ** p < 0.01 versus control.
(§4) U-937 cells were treated with 2.0 µmol/L HMC for 0, 24 and 48 h, respectively. […] After 14,000× g centrifugation for 15 min, the protein content of supernatant was determined by the Bio-Rad DC protein assay (Bio-Rad Laboratories, Hercules, CA, USA). […] Proteins were detected using primary antibodies, followed by HRP-conjugated secondary antibody. Labeling was detected using the ECL system (Amersham Biosciences Corp., Piscataway, NJ, USA).

Bax = assay: Western blot Bax in U-937 cells; format: cell-based, human; settings: 2.0 µmol/L, 24 h
Description: (§5) Since Bcl-2 family members were critical regulators of the mitochondrial pathway that induced intrinsic caspase activation, RT-PCR was applied to detect the mRNA level of Bax and Bcl-2 in HMC-treated U-937 cells. […] Meanwhile, Western blot analyses were carried out to observe the expressions of Bcl-2 and Bax.
(§6) U-937 cells were treated with 2.0 µmol/L HMC for 0, 24 and 48 h, respectively. The whole cells were collected, and then the cell pellets were resuspended with RIPA buffer that contained a mixture of protease inhibitors at 4 °C for 30 min. After 14,000× g centrifugation for 15 min, the protein content of supernatant was determined by the Bio-Rad DC protein assay (Bio-Rad Laboratories, Hercules, CA, USA). […] Proteins were detected using primary antibodies, followed by HRP-conjugated secondary antibody. Labeling was detected using the ECL system (Amersham Biosciences Corp., Piscataway, NJ, USA).

Bcl-2 = assay: Western blot Bcl-2 in U-937 cells; format: cell-based, human; settings: 2.0 µmol/L, 24 h
Description: as §5, §6

Bcl-2 mRNA = assay: RT-PCR Bcl-2 mRNA in U-937 cells; format: cell-based, human; settings: 2.0 µmol/L, 24 h
Description: as §5
(§7) Total RNA extraction for leukemia cells was performed by using Trizol method. U-937 cells were seeded in 6 well plates for 24 h, and then the cells were treated by 2.0 µmol/L HMC for another 24 h. After treatment, the cells were collected for RNA extraction. The forward and reversed primers of Bax were […] and […]. The forward and reversed primers of Bcl-2 were […] and […]. The forward and reversed primers of GAPDH were […] and […]. The reaction was conducted under the conditions with 94 °C for 30 s, 95 °C for 5 s, 62 °C for 30 s, 72 °C for 30 s for 30 cycles. Identity of the PCR-products was controlled by melting curve analysis. Standard curves were prepared from isolated PCR products by serial dilution. Data were normalized towards GAPDH expression and statistically analyzed.

total ERK = assay: Western blot total ERK in U-937 cells; format: cell-based, human; settings: 2.0 µmol/L, 0, 24 and 48 h
From the text: as §2, §3, §4

U-937 cells [1] = assay: ATP luminescence level; format: cell-based, human; settings: 2.0 μmol/L, 24 h
Description: (§8) To make it clear whether HMC-induce apoptosis was related to mitochondrial function, mitochondrial transmembrane potential was assessed using Rhodamine 123. […] Meanwhile, the ATP level of mitochondria was measured in U-937 cells treated by HMC.
ATP luminescence was detected according to the manufactured information to evaluate the mitochondrial damage after 2.0 µmol/L HMC insulting. U-937 cells were treated without or with HMC for 24 h. After incubation, equilibrate the plates and its contents at room temperature for 30 min. One hundred microliters of cell titer reagent was added to each well in a 96-well plate and the plate was shaken gently for 2 min to induce cell lysis. The plate was incubated at room temperature for 10 min to stabilize luminescent signal and then record luminescence.

Bax mRNA = assay: RT-PCR Bax mRNA in U-937 cells; format: cell-based, human; settings: 2.0 µmol/L, 24 h
Description: as §5, §7

HEL cells = assay: MTT cytotoxicity assay, HEL; format: cell-based, human; settings: 48 h, Mean ± SD
Description: as §1

U-937 cells [2] = assay: MTT cytotoxicity assay, U-937; format: cell-based, human; settings: Mean ± SD
Description: as §1

HL-60 cells = assay: MTT cytotoxicity assay, HL-60; format: cell-based, human; settings: Mean ± SD
Description: as §1

U-937 cells [3] = assay: Mitochondrial transmembrane potential, Rhodamine 123; format: cell-based, human; settings: Rhodamine 123, compared with the control group
From the text: (§9) Figure 2 HMC initiated apoptosis in U-937 cells through mitochondrial and Caspase cascade. (A) Apoptotic U-937 cells were observed after the cells were stained by Hoechst 33258. (B) Mitochondrial transmembrane potential was reduced in U-937 cells stained by Rodamine123. […] (D–F) HMC impacted the mRNA levels and protein expressions of Bax and Bcl-2 in U-937 cells leading to the activation of caspase 3. Data are presented as means ± SD of three independent tests. * p < 0.05 versus control, ** p < 0.01 versus control.
as §8

[4] = MTT cytotoxicity assay, HEK-293 (toxic selectivity); settings: human, HEK-293 cells, IC50 HEK-293, MTT, Mean ± SD
Description: (§10) Meanwhile, the cytotoxicity against human embryonic kidney cells (HEK-293) was evaluated for their toxic selectivity.
(§11) Human leukemia cell lines (U-937, HL-60, KG1 and HEL) and human embryonic kidney cells (HEK-293) were purchased from American Type Culture Collection (ATCC) (Manassas, VA, USA). Cells were cultured in RPMI 1640 supplemented with 10% fetal bovine serum (Gibco Life Technologies, Grand Island, NY, USA), 50 U/mL penicillin and 100 μg/mL streptomycin and maintained in a humidified atmosphere containing 5% CO2 at 37 °C. Penicillin and streptomycin were purchased from Hyclone (Logan, UT, USA).
(§12) Cytotoxicity was measured by the MTT assay. Briefly, cells were cultured in RPMI 1640 supplemented with 10% fetal bovine serum, 10 mmol/L Hepes, 50 units/mL penicillin, 50 μg/mL streptomycin, and 100 μg /mL gentamicin and were maintained at 37 °C in 5% CO2. A total of 2.5 × 10^4 cells in growth media were placed in each well of a 96-well flat-bottom plate. After 12 h of incubation, the growth medium was replaced by media containing different concentrations of the test samples. Cytotoxicity was determined at 48 h from the MTT absorbance (490 nm) reading for each concentration compared to the control. At least three replications for each sample were used to determine the cytotoxicity.

Caspase 3 = Caspase 3 activation in U-937 cells; format: cell-based, human; settings: 2.0 μmol/L, 24 h
Description: as §5, §6

Ras = assay: Western blot Ras in U-937 cells; format: cell-based, human; settings: 2.0 µmol/L, 0, 24 and 48 h
From the text: as §2, §3, §4

U-937 cells [5] = assay: Hoechst 33258 staining, apoptotic morphology; format: cell-based, human; settings: 2.0 μmol/L, 24 h
From the text: Based on the cytotoxic results, compound 8 (HMC) has pronounced cytotoxicity against human leukemia cells, especially to U-937 cells. Therefore, it was worthy of investigating the cytotoxic mechanism of HMC in U-937 cell death. To elucidate the characteristics of HMC-induced U-937 cells, morphologic changes were examined.
as §9

p-Raf = assay: Western blot p-Raf in U-937 cells; format: cell-based, human; settings: 2.0 µmol/L, 0, 24 and 48 h
From the text: as §2, §3, §4

[6] = tested on: human embryonic kidney cells HEK-293; assay: MTT cytotoxicity assay, HEK-293 (toxic selectivity); settings: read-out: IC50 HEK-293; MTT, 48 h, Mean ± SD
Description: as §10, §11, §12

in vitro = settings: human
Description: as §10, §11, §12

U-937 cells [7] = assay: MTT cell viability, genistein pretreatment plus HMC; format: cell-based, human; settings: 10 µmol/L Genistein pretreatment 1 h, then 2.0 µmol/L HMC 48 h
From the text: as §2, §3

Row | Molecule | IC50 (KG1 cells; Homo sapiens, KG-1, 48 h) | IC50 (HEL cells; Homo sapiens, HEL) | IC50 (U-937 cells [2]; Homo sapiens, U-937, 48 h) | IC50 (HL-60 cells; Homo sapiens, HL-60, 48 h) | IC50 at 48 h (in vitro) | also measured
1 | COc1ccc2c3c([nH]c2c1)C=NCC3 [Compound 8, harmalacidine] | 32.6 ± 1.7 µM | 25.7 ± 1.1 µM | 3.1 ± 0.2 µM | 61.3 ± 2.8 µM | – | expression of p-ERK1/2 (p-ERK1/2): down-regulate; expression of pro-apoptotic Bax (Bax): began to increase; expression of anti-apoptotic Bcl-2 (Bcl-2): began to decrease; Bcl-2 mRNA level (Bcl-2 mRNA): reduce; total ERK (total ERK): kept no change; ATP level (U-937 cells [1]): reduce; Bax mRNA level (Bax mRNA): increase; mitochondrial transmembrane potential (U-937 cells [3]): obviously reduced; IC50 at 48 h [4]: > 200 µM; Caspase 3 activation (Caspase 3): activated; expression of Ras (Ras): down-regulate; morphologic alterations of cell apoptosis (membrane blebbing, nuclear condensation, granular apoptotic bodies) (U-937 cells [5]): characteristic morphologic alterations of cell apoptosis were observed; expression of p-Raf (p-Raf): down-regulate
2 | harmol [Compound 4] | – | – | – | – | – | IC50 (KG1 cells; 48 h): 47.7 ± 2.3 µM; IC50 (HEL cells): 54.6 ± 2.3 µM; IC50 (U-937 cells [2]; 48 h): 46.1 ± 2 µM; IC50 (HL-60 cells; 48 h): 62 ± 2.8 µM; IC50 [6]: > 200 µM
3 | COc1ccc2c3c([nH]c2c1)C(C)=NCC3 [Compound 10, protonated harmaline] | – | – | – | – | – | IC50 (KG1 cells; 48 h): 56.9 ± 2.3 µM; IC50 (HEL cells): 21.2 ± 1.1 µM; IC50 (U-937 cells [2]; 48 h): 15.3 ± 0.7 µM; IC50 (HL-60 cells; 48 h): 45.7 ± 2.1 µM; IC50 [6]: 132 ± 4.6 µM
4 | COc1ccc2c3c([nH]c2c1)C(C)=NCC3 [Compound 9, harmaline] | 46.8 ± 1.9 µM | 20.1 ± 1.2 µM | 10.6 ± 0.7 µM | 55.3 ± 2.4 µM | – | IC50 at 48 h [4]: 156 ± 7.2 µM
5 | CCc1cc2nccc3c4ccc(OC)cc4n(c1=O)c23 [Compound 11, luotonin C] | 113 ± 5.6 µM | 68.3 ± 3 µM | 49.6 ± 1.9 µM | 87.3 ± 3.7 µM | > 200 µM | –
6 | OC[C@H]1O[C@@H](OCCc2c[nH]c3ccccc23)[C@H](O)[C@@H](O)[C@@H]1O [Compound 1, 2-(indol-3-yl)ethyl-β-D-glucopyranoside] | 23.1 ± 1.4 µM | 121 ± 5.5 µM | 52.1 ± 2.6 µM | 78.9 ± 3.8 µM | > 200 µM | –
7 | COC(=O)c1nccc2c1[nH]c1cc(OC)ccc12 [Compound 7, harmic acid methyl ester] | 56.8 ± 2.5 µM | 35.2 ± 2.8 µM | 22.3 ± 1.4 µM | 44.3 ± 2.1 µM | 164 ± 8.1 µM | –
8 | C[C@@H]1O[C@@H](OC[C@H]2O[C@@H](OCCc3c[nH]c4ccccc34)[C@H](O)[C@@H](O)[C@@H]2O)[C@H](O)[C@H](O)[C@H]1O [Compound 2, 2-(indol-3-yl)ethyl-α-L-rhamnopyranosyl-(1 → 6)-β-D-glucopyranoside] | 60.2 ± 2.7 µM | 131 ± 4.9 µM | 80.2 ± 4.5 µM | 55.3 ± 3.4 µM | > 200 µM | –
9 | O=c1c(-c2ccc(O)cc2)coc2cc(O)cc(O)c12 [genistein, Genistein] | – | – | – | – | – | cell viability after HMC co-incubation compared with HMC-treated only (U-937 cells [7]): significantly decrease
10 | COc1ccc2c(c1)NC(=O)[C@]2(O)CCNC(C)=O [Compound 3, (S)-3-hydroxy-3-(N-acetyl-2-aminoethyl)-6-methoxyindol-2-one] | > 200 µM | 55.3 ± 3.2 µM | 75.3 ± 2.8 µM | 36.2 ± 1.1 µM | 122 ± 5.7 µM | –
11 | COc1ccc2c(c1)[nH]c1c(C)nccc12 [Compound 5, harmine] | 62.7 ± 2.8 µM | 20.3 ± 1.1 µM | 23.1 ± 0.9 µM | 71.2 ± 3.3 µM | – | IC50 at 48 h [4]: > 200 µM
12 | COc1ccc2c([nH]c3c(C)nccc32)c1O[C@@H]1O[C@H](CO)[C@@H](O)[C@H](O)[C@H]1O [Compound 6, ruin] | 44.5 ± 2.1 µM | 71.6 ± 2.7 µM | 30.6 ± 1.2 µM | 60.7 ± 2.9 µM | > 200 µM | –
13 | N.N.[Cl][Pt][Cl] [Cisplatin, cisplatin, reference compound] | – | – | – | – | – | IC50 (KG1 cells; 48 h): 4.1 ± 0.3 µM; IC50 (HEL cells): 7.7 ± 0.2 µM; IC50 (U-937 cells [2]; 48 h): 6.3 ± 0.5 µM; IC50 (HL-60 cells; 48 h): 13.5 ± 0.4 µM
14 | COc1ccc2c3c([nH]c2c1)-c1nc2ccccc2c(=O)n1CC3 [Compound 12, 11-methyoxyl-rutaecarpine] | 88.1 ± 3.7 µM | 121 ± 5.5 µM | 55.3 ± 1.7 µM | 93.8 ± 6.8 µM | > 200 µM | –

Reference: article PMC4663518, “Cytotoxic Indole Alkaloids against Human Leukemia Cell Lines from the Toxic Plant Peganum harmala” (Toxins, 2015)
